Test results reported in paper PMC7181660, “A novel specific PERK activator reduces toxicity and extends survival in Huntington's disease models” (Scientific Reports, 2020).

Experiments:
Experiment in all cases: biochemical
Type in all cases: biochemical
panel of 391 kinases [1] = molecular target: panel of 391 kinases (Homo sapiens, UniProt Q9BXA7); conditions: STK22D/TSSK1, MK-28 1 µM, ATP 1 µM
panel of 391 kinases [2] = molecular target: panel of 391 kinases (Homo sapiens, UniProt Q52WX2); conditions: SBK1, MK-28 1 µM, ATP 1 µM
panel of 391 kinases [3] = molecular target: panel of 391 kinases (Homo sapiens, UniProt Q13237); conditions: PKG2/PRKG2, MK-28 1 µM, ATP 1 µM
panel of 391 kinases [4] = molecular target: panel of 391 kinases (Homo sapiens, UniProt Q9UL54); conditions: TAOK2/TAO1, MK-28 1 µM, ATP 1 µM
panel of 391 kinases [5] = molecular target: panel of 391 kinases (Homo sapiens, UniProt O00506); conditions: STK25/YSK1, MK-28 1 µM, ATP 1 µM
panel of 391 kinases [6] = molecular target: panel of 391 kinases (Homo sapiens, UniProt P07948); conditions: LYN, MK-28 1 µM, ATP 1 µM
panel of 391 kinases [7] = molecular target: panel of 391 kinases (Homo sapiens, UniProt Q8IYT8); conditions: ULK2, MK-28 1 µM, ATP 1 µM
panel of 391 kinases [8] = molecular target: panel of 391 kinases (Homo sapiens, UniProt Q86SG6); conditions: NEK8, MK-28 1 µM, ATP 1 µM
panel of 391 kinases [9] = molecular target: panel of 391 kinases (Homo sapiens, UniProt Q13043); conditions: MST1/STK4, MK-28 1 µM, ATP 1 µM
panel of 391 kinases [10] = molecular target: panel of 391 kinases (Homo sapiens, UniProt O75582); conditions: MSK1/RPS6KA5, MK-28 1 µM, ATP 1 µM
panel of 391 kinases [11] = molecular target: panel of 391 kinases (Homo sapiens, UniProt Q9P289); conditions: MST4, MK-28 1 µM, ATP 1 µM
panel of 391 kinases [12] = molecular target: panel of 391 kinases (Homo sapiens, UniProt P36507); conditions: MEK2, MK-28 1 µM, ATP 1 µM
panel of 391 kinases [13] = molecular target: panel of 391 kinases (Homo sapiens, UniProt P42345); conditions: kinase mTOR/FRAP1, compound at 1 µM, single dose in duplicates, 1 µM ATP
panel of 391 kinases [14] = molecular target: panel of 391 kinases (Homo sapiens, UniProt Q96RG2); conditions: PASK, MK-28 1 µM, ATP 1 µM
panel of 391 kinases [15] = molecular target: panel of 391 kinases (Homo sapiens, UniProt P51812); conditions: RSK2, MK-28 1 µM, ATP 1 µM
panel of 391 kinases [16] = molecular target: panel of 391 kinases (Homo sapiens, UniProt O43353); conditions: RIPK2, MK-28 1 µM, ATP 1 µM
panel of 391 kinases [17] = molecular target: panel of 391 kinases (Homo sapiens, UniProt P20794); conditions: MAK, MK-28 1 µM, ATP 1 µM
panel of 391 kinases [18] = molecular target: panel of 391 kinases (Homo sapiens, UniProt Q9UHD2); conditions: TBK1, MK-28 1 µM, ATP 1 µM
panel of 391 kinases [19] = molecular target: panel of 391 kinases (Homo sapiens, UniProt Q9NQU5); conditions: PAK6, MK-28 1 µM, ATP 1 µM
panel of 391 kinases [20] = molecular target: panel of 391 kinases (Homo sapiens, UniProt Q8IWQ3); conditions: BRSK2, MK-28 1 µM, ATP 1 µM
panel of 391 kinases [21] = molecular target: panel of 391 kinases (Homo sapiens, UniProt P06213); conditions: IR, MK-28 1 µM, ATP 1 µM
panel of 391 kinases [22] = molecular target: panel of 391 kinases (Homo sapiens, UniProt Q15759); conditions: P38b/MAPK11, MK-28 1 µM, ATP 1 µM
panel of 391 kinases [23] = molecular target: panel of 391 kinases (Homo sapiens, UniProt Q9Y4K4); conditions: KHS/MAP4K5, MK-28 1 µM, ATP 1 µM
panel of 391 kinases [24] = molecular target: panel of 391 kinases (Homo sapiens, UniProt Q8IY84); conditions: NIM1, MK-28 1 µM, ATP 1 µM
panel of 391 kinases [25] = molecular target: panel of 391 kinases (Homo sapiens, UniProt Q86Y07); conditions: VRK2, MK-28 1 µM, ATP 1 µM
panel of 391 kinases [26] = molecular target: panel of 391 kinases (Homo sapiens, UniProt Q9UEE5); conditions: DRAK1/STK17A, MK-28 1 µM, ATP 1 µM
[27] = read-out: % Enzyme Activity (relative to DMSO controls)

In the case of `CN(/N=C\c1ccc(O)c(O)c1)c1nc(-c2ccccc2)cc(-c2ccccc2)n1` [MK-28], the “% Enzyme Activity (relative to DMSO controls)” value (panel of 391 kinases [1]) is reported as 91.99%, the remaining activity at 1 µM (panel of 391 kinases [1]; [27]) is reported as 93.3% and the “% Enzyme Activity (relative to DMSO controls)” value (panel of 391 kinases [2]) is reported as 97.75%. The remaining activity at 1 µM (panel of 391 kinases [2]; [27]) was 97.8%, the “% Enzyme Activity (relative to DMSO controls)” value (panel of 391 kinases [3]) was 85.92% and the remaining activity at 1 µM (panel of 391 kinases [3]; [27]) was 86%. The “% Enzyme Activity (relative to DMSO controls)” value (panel of 391 kinases [4]) was 107.98%, the remaining activity at 1 µM (panel of 391 kinases [4]; [27]) was 111% and the “% Enzyme Activity (relative to DMSO controls)” value (panel of 391 kinases [5]) was 93.29%. For the same compound, the remaining activity at 1 µM (panel of 391 kinases [5]; [27]) was 95.7%, the “% Enzyme Activity (relative to DMSO controls)” value (panel of 391 kinases [6]) was 96.29% and the remaining activity at 1 µM (panel of 391 kinases [6]; [27]) was 96.5%. The “% Enzyme Activity (relative to DMSO controls)” value (panel of 391 kinases [7]) was 98.62%, the remaining activity at 1 µM (panel of 391 kinases [7]; [27]) was 102% and the “% Enzyme Activity (relative to DMSO controls)” value (panel of 391 kinases [8]) was 101.46%. For the same compound, the remaining activity at 1 µM (panel of 391 kinases [8]; [27]) was 101%, the “% Enzyme Activity (relative to DMSO controls)” value (panel of 391 kinases [9]) was 85.69% and the remaining activity at 1 µM (panel of 391 kinases [9]; [27]) was 93.7%. The “% Enzyme Activity (relative to DMSO controls)” value (panel of 391 kinases [10]) was 97.92%, the remaining activity at 1 µM (panel of 391 kinases [10]; [27]) was 98.4% and the “% Enzyme Activity (relative to DMSO controls)” value (panel of 391 kinases [11]) was 101.40%. The remaining activity at 1 µM (panel of 391 kinases [11]; [27]) was 102%, the “% Enzyme Activity (relative to DMSO controls)” value (panel of 391 kinases [12]) was 98.80% and the remaining activity at 1 µM (panel of 391 kinases [12]; [27]) was 99.9%. For the same compound, the “% Enzyme Activity (relative to DMSO controls)” value (panel of 391 kinases [13]) was 93.79%, the remaining activity at 1 µM (panel of 391 kinases [13]; [27]) was 94.4% and the “% Enzyme Activity (relative to DMSO controls)” value (panel of 391 kinases [14]) was 91.44%. For the same compound, the remaining activity at 1 µM (panel of 391 kinases [14]; [27]) was 95.4%, the “% Enzyme Activity (relative to DMSO controls)” value (panel of 391 kinases [15]) was 95.23% and the remaining activity at 1 µM (panel of 391 kinases [15]; [27]) was 99.7%. For the same compound, the “% Enzyme Activity (relative to DMSO controls)” value (panel of 391 kinases [16]) was 100.79%, the remaining activity at 1 µM (panel of 391 kinases [16]; [27]) was 102% and the “% Enzyme Activity (relative to DMSO controls)” value (panel of 391 kinases [17]) was 94.70%. For the same compound, the remaining activity at 1 µM (panel of 391 kinases [17]; [27]) was 97.8%, the “% Enzyme Activity (relative to DMSO controls)” value (panel of 391 kinases [18]) was 116.87% and the remaining activity at 1 µM (panel of 391 kinases [18]; [27]) was 126%. For the same compound, the “% Enzyme Activity (relative to DMSO controls)” value (panel of 391 kinases [19]) was 97.64%, the remaining activity at 1 µM (panel of 391 kinases [19]; [27]) was 98% and the “% Enzyme Activity (relative to DMSO controls)” value (panel of 391 kinases [20]) was 99.36%. For the same compound, the remaining activity at 1 µM (panel of 391 kinases [20]; [27]) was 101%, the “% Enzyme Activity (relative to DMSO controls)” value (panel of 391 kinases [21]) was 92.32% and the remaining activity at 1 µM (panel of 391 kinases [21]; [27]) was 94.4%. For the same compound, the “% Enzyme Activity (relative to DMSO controls)” value (panel of 391 kinases [22]) was 107.60%, the remaining activity at 1 µM (panel of 391 kinases [22]; [27]) was 109% and the “% Enzyme Activity (relative to DMSO controls)” value (panel of 391 kinases [23]) was 84.30%. For the same compound, the remaining activity at 1 µM (panel of 391 kinases [23]; [27]) was 86.9%, the “% Enzyme Activity (relative to DMSO controls)” value (panel of 391 kinases [24]) was 98.00% and the remaining activity at 1 µM (panel of 391 kinases [24]; [27]) was 104%. For the same compound, the “% Enzyme Activity (relative to DMSO controls)” value (panel of 391 kinases [25]) was 96.44%, the remaining activity at 1 µM (panel of 391 kinases [25]; [27]) was 97% and the “% Enzyme Activity (relative to DMSO controls)” value (panel of 391 kinases [26]) was 99.69%. It also gave a remaining activity at 1 µM (panel of 391 kinases [26]; [27]) of 102%.
